# What was measured:
# MDCK cells = experiment: Cytotoxicity assay (CellTiter-Glo cell viability); conditions: dose-dependent, 10 and 25 μM
# HA = molecular target: HA; set-up: method as in Sauter et al., 1989; conditions: monovalent interaction; ref Sauter et al., 1989; read-out: dissociation constant (KD); cited from earlier work
# [1] = Cytotoxicity assay (CellTiter-Glo cell viability); conditions: dog
smiles,measurement,setting,value
"CC(=O)O[C@H]1C(=O)[C@@]2(C)[C@H]([C@H](OC(=O)c3ccccc3)[C@]3(O)C[C@H](OC(=O)[C@H](O)[C@@H](NC(=O)c4ccccc4)c4ccccc4)C(C)=C1C3(C)C)[C@]1(OC(C)=O)CO[C@@H]1C[C@@H]2O [PTX, paclitaxel]","viability of MDCK cells (words, positive control)",MDCK cells,decrease in the viability
CC(=O)N[C@H]1[C@H]([C@H](O)[C@H](O)CO)OC(O)(C(=O)O)C[C@@H]1O (stereo partly shown) [sialic acid],Kd,HA,~2000 µM
"CC1(C)[C@@H](O)CC[C@]2(C)[C@H]3C(=O)C=C4[C@@H]5C[C@@](C)(C(=O)O)CC[C@]5(C)CC[C@@]4(C)[C@]3(C)CC[C@@H]12 [Compound 2, glycyrrhetinic acid]",CC50 at 48 h,[1]; MDCK cells,85 ± 6.8 µM
same,"viability at 48 h, 25 µM",[1]; MDCK cells (uninfected),82.8%
